Our source for the IC50 and solubility values is ChEMBL document CHEMBL1153194, “Discovery of halo-nitrobenzamides with potential application against human African trypanosomiasis” (Bioorg Med Chem Lett, 2010).

Series [1] concerns HepG2. Put plainly: Cytotoxicity against human HepG2 cells after 72 hrs. In kind it is cell-based. The note with it: HepG2, 72 h.
For series [2], the system named is Trypanosoma brucei brucei. Nature of the series: Antitrypanosomal activity against Trypanosoma brucei brucei after 48 hrs by luminescence assay. In kind it is functional, organism-based.
In series [3] the test system is Plasmodium falciparum. Nature of the series: Antiplasmodial activity against Plasmodium falciparum 3D7 infected in human O+ erythrocytes after 72 hrs by GNA satin based assay. The class given is functional, organism-based. The note with it: 3D7, 72 h.
Series [4] in a line: Solubility of the compound. The class given is physicochemical.

On to `CCCCCCc1ccc(NC(=O)c2ccc(F)c([N+](=O)[O-])c2)cc1`, for which the figures for the IC50 in series [1], in series [2] and in series [3] were 10.3 µM, 24 µM and > 15 µM, respectively. Further, the solubility in series [4] was < 0.1 µM.
The like results for `CCCCCCc1ccc(NC(=O)c2ccc([N+](=O)[O-])cc2Cl)cc1` were, in that order, > 50 µM, 19 µM, > 15 µM and < 0.1 µM.
Consider `COc1ccc(N2CCN(C(=O)c3cc([N+](=O)[O-])ccc3Cl)CC2)cc1`, for which the IC50 was > 50 µM in series [1], 24.5 µM in series [2] and > 15 µM in series [3].
As to `CCCCCCc1ccc(NC(=O)c2cccc([N+](=O)[O-])c2Cl)cc1`, the IC50 is > 50 µM in series [1], > 50 µM in series [2] and > 15 µM in series [3]. Moreover, the solubility in series [4] was < 0.1 µM.
Regarding `CCCCCCc1ccc(C(=O)Nc2cc([N+](=O)[O-])ccc2Cl)cc1`, the IC50 in series [1] is > 50 µM; in series [2], > 50 µM; in series [3], > 15 µM. The solubility in series [4] was < 0.1 µM.
In the case of `CCCCCCc1ccc(C(=O)Nc2ccc(Cl)c([N+](=O)[O-])c2)cc1`, the 50% inhibitory concentration (IC50) in series [1] is > 50 µM; in series [2], 6 µM; in series [3] it was > 15 µM. For the same compound, in series [4], the solubility was < 0.1 µM.
As for `COc1ccc(NC(=O)c2cc([N+](=O)[O-])ccc2Cl)cc1`, the results for the IC50 in series [1], in series [2] and in series [3] were > 50 µM, 19.2 µM and > 15 µM, respectively.
With `O=C(Nc1ccc(Cl)cc1)c1cc([N+](=O)[O-])ccc1Cl`, the IC50 in series [1] was > 50 µM; in series [2], 1.5 µM; in series [3] it was > 15 µM.
For `O=C(NCC1CCCCC1)c1cc([N+](=O)[O-])ccc1Cl`, the IC50 is > 50 µM in series [1], 27 µM in series [2] and > 15 µM in series [3].
On to `CCCCCCc1ccc(NC(=O)c2cc([N+](=O)[O-])ccc2Cl)cc1`, for which the figures for the IC50 in series [1], in series [2] and in series [3] were > 50 µM, 1 µM and > 15 µM, respectively. Further, the solubility in series [4] is < 0.1 µM.
The like results for `CCCCCCc1ccc(NC(=O)c2ccc(Cl)cc2[N+](=O)[O-])cc1` were, in that order, > 50 µM, 20.8 µM, > 15 µM and < 0.1 µM.
For `CCCCCCc1ccc(C(=O)Oc2ccc(Cl)c([N+](=O)[O-])c2)cc1` the same measures were > 50 µM, 24 µM, > 15 µM and < 0.1 µM.
As to `O=C(NCc1ccccc1)c1cc([N+](=O)[O-])ccc1Cl`, the half-inhibitory concentration (IC50) in series [1] was > 50 µM; in series [2], > 50 µM; in series [3], > 15 µM.
Regarding `CCCCCCc1ccc(NC(=O)c2ccc(Cl)c([N+](=O)[O-])c2)cc1`, the results for the IC50 in series [1], in series [2] and in series [3] were > 50 µM, 11.9 µM and > 15 µM, respectively. Further, the solubility in series [4] was < 0.1 µM.
The like results for `CCCCCCc1ccc(NC(=O)c2c(Cl)cccc2[N+](=O)[O-])cc1` were, in that order, > 50 µM, 29.8 µM, > 15 µM and < 0.1 µM.
Consider `Cc1ccc(NC(=O)c2cc([N+](=O)[O-])ccc2Cl)cc1`, for which the IC50 is > 50 µM in series [1], 7.7 µM in series [2] and > 15 µM in series [3].
For the compound `CCCCCCc1ccc(NC(=O)c2cc([N+](=O)[O-])ccc2F)cc1`, the IC50 was 2.5 µM in series [1], 1.5 µM in series [2] and 7.3 µM in series [3]. In series [4], the solubility was < 0.1 µM.
